These results are taken from patent US6520981B1, “Significance of dosimetry in photodynamic therapy of injured arteries” (The General Hospital Corporation, priority 1999, dated 2003).

Where “and” joins values, the source holds several entries; their conditions need not be identical. Identical values can stand only once. Entries after “also recorded” stand apart in the source; their conditions may differ. Like-named read-outs stand apart in the source and are kept apart here. Marks after values point to notes of the source that are not given here.

For data set [1], the system named is balloon-injured rat common carotid artery (intimal hyperplasia). The data set can be described thus: PDT with locally delivered methylene blue in balloon-injured rat carotid artery: light microscopy and histomorphometry. Conditions: 2 weeks. The class given is in vivo. How it is done:
Control animals included BI along and MB after BI alone. Arteries were analyzed after 2 weeks with morphometric evaluation (per group: n=6), and in situ hybridization for versican and pro-collagen type 1 gene expression (digitized image pixel analyses, n=9).
Common carotid artery balloon injury was performed using a 2-French Fogarty embolectomy catheter (Baxter Health Care Corporation, Edwards Division, Irvine, Calif.). […] In brief, the balloon was introduced into the common carotid artery and inflated with 0.65 mL of air. […] The catheter was connected via a three-way stopcock to a Stratham transducer for synchronous pressure monitoring (HP 78205C, Hewlett Packard, Mass.). […] Under low ambient light, the drug was injected into the common carotid artery with 180 mm HG for 2 minutes. […] The external carotid artery was ligated, and the blood flow was restored.
The animals were randomly assigned to the following 3 groups: Group PDT (n=6): balloon injury followed by application of photosensitizer and laser irradiation; Group PS (n=6): balloon injury followed by the photosensitizer MB application alone; Group BI (n=6): no treatment other than balloon-injury (BI) to the carotid artery.
Photodynamic Therapy: Five minutes after local delivery of MB, the common carotid artery was externally irradiated with 660 nm laser light, emitted by a diode laser (Alto-Surgeon SRG-3, Polaroid, Cambridge, Mass.) to deliver a total fluence of 100 J/cm^2 at an irradiance of 100 mW/cm^2. The diode laser was coupled to a 600-μm optical fiber through a microlens to obtain a uniform 1-cm spot. The targeted artery was submerged in 0.9% saline and placed on a right-angled reflective mirror to achieve uniform irradiation, as previously described. The irradiated vessel segment was marked with periadventitial India ink.
Harvest: Animals were sacrificed 14 days after surgery by an overdose of pentobarbital. Following sacrifice, the iliac artery was cannulated and the arterial system was flushed with saline and in situ perfusion-fixed at 150 mm Hg with 10% buffered formalin. The balloon-injured vessel segments and the contralateral carotid artery were excised and placed in fresh 10% buffered formalin. After embedding in paraffin, multiple 4 μm thick cross sections were obtained from the proximal, mid, and distal vessel segments.
Vessel Histomorphometry: The histologic analyses of the arteries stained with hematoxylin and eosin consisted of both a descriptive and quantitative morphometric evaluation. The morphometry of the arteries was measured using a digitizing measurement system (Color CCB Camera Model 2222-1010, COHU Inc., San Diego, Calif.) and analyzed using the Scion Image software (Scion Corporation, Frederick, MY). Intimal area, medial area, and vessel diameter, as delineated by the external elastic lamina, were measured and calculated as previously described. In addition, adventitial cells were counted manually and are expressed as the number of cells per high power microscopic field (×400). Because the area of the adventitia varies within the different specimens, high power fields were used for all quantitative measurements of adventitial cell numbers and gene expression in the in situ hybridization experiments.

Data set [2] deals with versican mRNA. Briefly: Digoxigenin in situ hybridization, versican. It is filed as in vivo, rat. Conditions: group PDT: MB 250 μg/ml, 660 nm, 100 J/cm^2; 2 weeks. From the text:
(§1) Digoxigenin in situ hybridization: Groups for in situ hybridization included PDT, BI, and the uninjured contralateral artery (n=3). […] Complementary DNAs (cDNAs) for type I procollagen and versican core protein were obtained as PCR fragments with each gene specific primers in which reverse primers contain T7 RNA polymerase recognition sequence at their 5′ end. Primer sequences were as follows. […] Digoxigenin-labeled antisense RNA probes were synthesized using a RNA labeling kit (Boehringer, Mannheim, Germany) according to the manufacturers' instruction and the in situ hybridization protocol used with modifications as previously described. Arterial sections were deparafinized in xylene and rehydrated through graded ethanol solutions, washed, and treated with 5 μg/ml proteinase K (Boehringer) for 30 min at 37° C. […] The hybridized probes were detected using an alkaline phosphatase conjugated anti-digoxigenin monoclonal antibody (Boehringer), and the colored product was visualized using Nitro Blue tetrazolium (Boehringer) and 5-bromo-4-chlor-indonyl-phosphate (Boehringer) as substrates. […] For statistical analysis, the median data point of every specimen was assessed and used to compare control versus PDT procollagen type I and veriscan gene expression.
(§2) Statistical Evaluation: All values are expressed as a mean ± SD.

Data set [3] concerns procollagen type I mRNA. The data set can be described thus: Digoxigenin in situ hybridization, procollagen type I. It is filed as in vivo, rat. Conditions: group PDT: MB 250 μg/ml, 660 nm, 100 J/cm^2; 2 weeks.
Excerpt: as §1, §2

In data set [4] the test system is basic fibroblast growth factor (bFGF). The data set can be described thus: Immunohistochemistry for bFGF in arteries after BPD-PDT. Particulars: 100 J/cm^2. The class given is in vivo, rat. From the text: Harvest. […] The carotid artery was flushed with saline.
Immunohistochemistry. Immunohistochemistry for basic fibroblast growth factor (bFGF) was undertaken to verify possible differential, dose-dependent effects on this growth factor which resides in the vascular wall and is known to play an important role in the early development of IH in rats. Monoclonal antibody to bFGF (Zymogenetics, Seattle, Wash.) was used to verify the presence of bFGF in the specimens using the two-layer indirect immunoperoxidase technique previously described. Briefly, the primary antibody (1:1000) was labeled by biotinylated horse anti-mouse immunoglobulin (Vector Laboratories, Burlingame, Calif.) and counterstained with nuclear fast red (Sigma Chemical Co., St. Louis, Mo.). Normal arteries were used as positive control, and arteries stained with a nonspecific primary antibody were used as negative controls to exclude nonspecific binding by the primary or secondary antibody.

The nature of data set [5]: Observation of BPD-treated animals at harvest. Particulars: rats after local delivery of BPD. The class given is in vivo, rat.
Data set [6] deals with balloon-injured rat common carotid artery (intimal hyperplasia). Particulars: for Intimal Area: 690 nm.
Method: Male Sprague Dawley rats (Charles River Breeding Laboratories, Wilmington, Mass.), weighing 350-450 g, were anesthetized with intramuscular Ketamine (75 mg/kg), Xylazine (5 mg/kg), and Atropine (40 μg/kg). A midline neck incision was performed and the left carotid artery was exposed. After clamping the common carotid and the internal carotid artery, a 2 F (French Fogarty embolectomy catheter (Baxter Health Care Corporation, LIS Division, Irvine, Calif.) was introduced into the common carotid artery via the external carotid artery. The common carotid artery was subsequently injured by inflating the balloon with 0.2 ml air and gently passing and rotating the catheter three times.
After balloon-injury, a 22 gauge polyethylene catheter was advanced through the external carotid arteriotomy into the distal portion of the common carotid artery and secured with a suture. The catheter was connected via three-way stopcock to a Statham transducer for synchronous pressure monitoring with a digital pressure manometer (HP 78205C, Hewlett Packard, Palo Alto, Calif.). The second generation photosensitizer benzoporphyrin-derivative monoacidic ring (BPD-MA Verteporfine®, Quadra Logic Technologies Inc., Vancouver, BC, Canada), provided as a liposomal preparation, was reconstituted in distilled water (2 mg/ml) and diluted in physiologic saline to a final concentration of 25 μg/ml. Once the arterial segment was isolated with microclamps under low ambient light, BPD was delivered at a pressure of 400 mm Hg for two minutes. […] Following aspiration of BPD from the arterial lumen, the artery was flushed with saline, the catheter was removed, and blood flow was restored to the internal carotid artery.
Photodynamic Therapy. Fifteen minutes following delivery of the PS to the artery wall, the common carotid artery was externally irradiated as previously described. Briefly, an argon-pumped dye laser (Coherent Innova I 100 and Coherent CR 599, Coherent, Palo Alto, Calif.) was tuned to 690 nm light at an irradiance of 100 mW/cm^2, coupled to a 600 μm optical fiber, and using a 5-mm focal length lens magnified to obtain a uniform 2-cm spot. The targeted artery was submerged in physiologic saline, placed on a right-angled reflective mirror, and optically isolated with black, light-impervious tape.
Experimental groups. The arteries were assigned to four different experimental groups: group 1 (n=6) and 2 (n=6) consisted of arteries which were pressurized with 0.5 μg/ml BPD and irradiated at a fluence of 50 and 100 J/cm^2 respectively. Group 3 (n=15) and 4 (n=4) were pressurized with 25 μg/ml BPD and irradiated at 100 or 200 J/cm^2 respectively.
Harvest. The animals were sacrificed 24 hours and 2 weeks after PDT. The carotid artery was flushed with saline. They were either in situ perfusion-fixed at 80 mm Hg with 10% buffered formalin for light microscopy or rinsed with saline, embedded in Tissue tek O.C.T. compound® (Miles Inc. Elkhart, IN) and stored at −70° C. for immunohistochemistry.
Histology. For each animal, the harvested artery was processed into three segments: proximal, mid, and distal. Multiple five-μm thick cross-sections were prepared from each specimen of the artery, and a representative from each segment was analyzed. All paraffin-embedded specimens were stained with hematoxylin and eosin. Arterial diameters, as delineated by the length of the internal elastic lamina (IEL circumference=πd), as well as intimal—and medial areas were measured using morphometric analysis with a camera lucida digitizing measurement system as previously described (Sigma Scan, Jandel Scientific, San Rafael, Calif.).
For data set [7] the following is noted: 15 minutes following delivery of BPD at 400 mm Hg for two minutes; previous studies; cited from earlier work.
Data set [8] has as its system intimal hyperplasia. Particulars: for as long as 6 months after PDT; cited from earlier work.
[9] abbreviates: group PDT: MB 250 μg/ml, 660 nm, 100 J/cm^2.
Setting [10] is: group PS: MB alone without irradiation.
Setting [11] is: group 1: 0.5 μg/ml BPD, 50 J/cm^2, 2 weeks.
[12] abbreviates: group 2: 0.5 μg/ml BPD, 100 J/cm^2, 2 weeks.
[13] abbreviates: group 3: 25 μg/ml BPD, 100 J/cm^2, 2 weeks.
Where [14] appears, read: group 4: 25 μg/ml BPD, 200 J/cm^2.

Regarding `CN(C)c1ccc2nc3ccc(=[N+](C)C)cc-3sc2c1` [MB, methylene blue], in data set [1] (setting [9]), the Diameter turned out to be 0.95±0.04 mm; the “Histology of arteries” value was “without evidence of microthrombi, inflammation, or intimal thickening; also recorded: no IH was seen”; the Medial Area is 0.063±0.004 mm^2. Also, the “Number of adventitial cells per high power field” value in data set [1] (group PDT: MB 250 μg/ml, 660 nm, 100 J/cm^2, ×400) was found to be 39±9.4. The IH area in [1] (group PDT: balloon injury, MB 250 μg/ml locally, 660 nm, 100 J/cm^2) stood at 0±0 mm^2. Further, in data set [1] (setting [10]), the “Histology of arteries” value is “no MB-induced modulation of the vascular injury healing response; also recorded: IH formation was demonstrated” and the Medial Area is given as 0.085±0.005 mm^2. The compound further yielded an IH area in [1] (group PS: balloon injury, MB alone without irradiation) of 0.183±0.05 mm^2. In addition, the “Versican mRNA in adventitia, % of positive pixels per high power field” value in [2] was 1.13%±0.39% and 1.11±0.37%. Besides, in [3], the “Pro-collagen type I mRNA in adventitia, % of positive pixels per high power field” value is 4.13%±1.25%. Also, the Artery thrombosis entry (MB study, at harvest (14 days)) was “No artery thrombosis”. Besides, where the note is “rat, in vivo”, the Signs of toxicity entry is reported as “no signs of toxicity”.

In the case of “benzoporphyrin-derivative monoacid ring [BPD]”, the “bFGF staining of the vascular wall” value in data set [4] (group 2 / stage II: 0.5 μg/ml BPD, 24 hours after PDT) is “evidence of bFGF in all layers of the vascular wall; also recorded: bFGF could still be detected in all layers of the vascular wall; also recorded: positive staining for bFGF in all layers of the vascular wall; also recorded: avid brown staining in all layers of the vascular wall”; in data set [4] (group 3 / stage III: 25 μg/ml BPD, two weeks after PDT) it was “evidence for bFGF in the flat cells, presumably endothelial cells, at the luminal surface; also recorded: positive bFGF staining only of endothelial cells in the intima and fibroblasts in the adventitia”. Also, in data set [5], the “Signs of systemic phototoxicity” value was “no signs of systemic phototoxicity”. In addition, in data set [6] (group 1 / stage I: 0.5 μg/ml BPD, 50 J/cm^2, 2 weeks), the “Intimal hyperplasia, histology” value is reported as “significant IH”. In addition, the Diameter in data set [6] (setting [11]) was 0.93 ± 0.02 mm; in [6] (setting [12]), 0.95 ± 0.06 mm; in [6] (setting [13]), 0.82 ± 0.04 mm; in [6] (setting [14]), 0.91 ± 0.03 mm. Moreover, the “Medial Area” value in data set [6] (setting [11]) is recorded as 0.18 ± 0.01 mm^2; in data set [6] (setting [12]), 0.18 ± 0.05 mm^2; in data set [6] (setting [13]), 0.10 ± 0.02† mm^2; in [6] (setting [14]) it was 0.17 ± 0.01 mm^2. The “Intimal Area” value in data set [6] (setting [11]) is 0.18±0.03 mm^2; in data set [6] (setting [12]) it was 0.14±0.03 mm^2; in data set [6] (setting [13]) it was 0.01 ± 0.01*‡ mm^2. Besides, in data set [7], the “Photosensitizer fluorescence in the arterial wall” value is given as “detected through the entire arterial wall”.

As to chloraluminum sulfonated phthalocyanin, the “Inhibition of IH after PDT” value in data set [8] was “inhibition of IH without arterial degeneration”.
